Test results from patent publication US11312716B2, “9H-pyrrolo-dipyridine derivatives” (UCB Biopharma SRL, priority 2015, dated 2022).

Assays:
[1] = Rat brain free fraction (Fu) measurement by equilibrium dialysis; conditions: male, Sprague-Dawley, brain homogenate (25% w/v in PBS), pH 7.4
[2] = biological target: rat MAO-A enzyme (Rattus norvegicus (Rat), UniProt P21396); experiment: Rat MAO-A binding, competition for [3H]Ro 41-1049 in rat cerebral cortex; conditions: for inhibition at 0.01 µM: 10 nM [3H]Ro 41-1049, read-out: Rat MAO-A Binding INHIB 10 nM; for inhibition at 0.1 µM: 10 nM [3H]Ro 41-1049, read-out: Rat MAO-A Binding INHIB 100 nM
Procedure: Compound selectivity for Tau protein was assessed as compared to a broad panel of receptors, enzymes and ion channels. Selectivity profiling of 10 μM compounds against a panel of 81 targets (n=1 with data in duplicate) was performed. Compounds affinity for rat MAO-A enzyme was assessed in rat cerebral cortex by competition experiment for 10 nM [^3H]Ro 41-1049 and increasing concentrations of test compounds. Compounds affinity for human MAO-A enzyme (1 μg/assay, Sigma-Aldrich, Diegem, Belgium) was assessed by saturation binding experiment performed as described above with [^3H]compounds.

[3] = brain homogenate

Sequence of rat MAO-A enzyme (P21396 whole entry): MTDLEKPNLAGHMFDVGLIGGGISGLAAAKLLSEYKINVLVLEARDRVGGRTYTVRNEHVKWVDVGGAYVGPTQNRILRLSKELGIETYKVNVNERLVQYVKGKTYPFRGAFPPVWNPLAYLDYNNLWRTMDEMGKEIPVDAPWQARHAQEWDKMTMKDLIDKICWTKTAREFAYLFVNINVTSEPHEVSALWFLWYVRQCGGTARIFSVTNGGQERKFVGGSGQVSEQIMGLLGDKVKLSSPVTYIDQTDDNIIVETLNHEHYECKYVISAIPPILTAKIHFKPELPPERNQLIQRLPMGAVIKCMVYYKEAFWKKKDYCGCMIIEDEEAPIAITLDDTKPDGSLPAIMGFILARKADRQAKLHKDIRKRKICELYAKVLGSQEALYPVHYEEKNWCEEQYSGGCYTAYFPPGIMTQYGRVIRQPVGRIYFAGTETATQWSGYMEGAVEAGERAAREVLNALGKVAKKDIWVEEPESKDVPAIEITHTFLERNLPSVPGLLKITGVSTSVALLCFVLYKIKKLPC

| fraction unbound at 4 h, 1 μM [1] | inhibition at 0.01 µM ([2]; 10 nM test compound) [%] | inhibition at 0.1 µM ([2]; 100 nM test compound) [%] | Fu Rat Brain [3] [%] | Rat MAO-A Binding INHIB 10 nM ([2]; 10 nM test compound, 10 nM [3H]Ro 41-1049) [%] | Rat MAO-A Binding INHIB 100 nM ([2]; 100 nM test compound, 10 nM [3H]Ro 41-1049) [%] | Compound |
| --- | --- | --- | --- | --- | --- | --- |
| 0.009 | – | – | – | – | – | COc1cc(-c2ccc3c(n2)[nH]c2ccncc23)ccn1 [Example 2, 2-(2-methoxypyridin-4-yl)-9H-pyrrolo[2,3-b:4,5-c′]dipyridine] |
| 0.075 | 21 | 50 | – | – | – | Cn1cc(-c2ccc3c(n2)[nH]c2ccncc23)cn1 [Example 4, 2-(1-methyl-1H-pyrazol-4-yl)-9H-pyrrolo[2,3-b:4,5-c′]dipyridine] |
| 0.006 | 8 | 39 | – | – | – | COc1ccc(-c2ccc3c(n2)[nH]c2ccncc23)cn1 [Example 5, 2-(6-methoxypyridin-3-yl)-9H-pyrrolo[2,3-b:4,5-c′]dipyridine] |
| 0.098 | – | – | – | – | – | Oc1ccc(-c2ccc3c(n2)[nH]c2ccncc23)cn1 [Example 6, 5-(9H-pyrrolo[2,3-b:4,5-c′]dipyridin-2-yl)pyridin-2-ol] |
| 0.005 | – | – | – | – | – | COc1ncc(-c2ccc3c(n2)[nH]c2ccncc23)cc1F [Example 7, 2-(5-fluoro-6-methoxypyridin-3-yl)-9H-pyrrolo[2,3-b:4,5-c′]dipyridine] |
| 0.036 | -5 | 7 | – | – | – | c1cc2[nH]c3nc(-c4cn[nH]c4)ccc3c2cn1 [Example 9, 2-(1H-pyrazol-4-yl)-9H-pyrrolo[2,3-b:4,5-c′]dipyridine] |
| 0.011 | – | – | – | – | – | c1cc2[nH]c3nc(-c4cnc(N5CCOCC5)nc4)ccc3c2cn1 [Example 10, 4-(5-(9H-pyrrolo[2,3-b:4,5-c′]dipyridin-2-yl)pyrimidin-2-yl)morpholine] |
| 0.028 | -12 | -7 | – | – | – | CNC(=O)c1ccc(-c2ccc3c(n2)[nH]c2ccncc23)cn1 [Example 11, N-methyl-5-(9H-pyrrolo[2,3-b:4,5-c′]dipyridin-2-yl)pyridine-2-carboxamide] |
| 0.005 | 8 | 13 | – | – | – | Nc1ncc(-c2ccc3c(n2)[nH]c2ccncc23)cc1F [Example 12, 3-fluoro-5-(9H-pyrrolo[2,3-b:4,5-c′]dipyridin-2-yl)pyridin-2-amine] |
| 0.011 | – | – | – | – | – | c1cnc(N2CCN(c3ccc4c(n3)[nH]c3ccncc34)CC2)nc1 [Example 13, 2-(4-(pyrimidin-2-yl)piperazin-1-yl)-9H-pyrrolo[2,3-b:4,5-c′]dipyridine] |
| 0.019 | – | – | – | – | – | c1cc(N2CCN(c3ccc4c(n3)[nH]c3ccncc34)CC2)ccn1 [Example 14, 2-(4-(pyridin-4-yl)piperazin-1-yl)-9H-pyrrolo[2,3-b:4,5-c′]dipyridine] |
| 0.056 | – | – | – | – | – | c1cc2[nH]c3nc(-c4ccn[nH]4)ccc3c2cn1 [Example 15, 2-(1H-pyrazol-3-yl)-9H-pyrrolo[2,3-b:4,5-c′]dipyridine] |
| 0.005 | – | – | – | – | – | c1cc2[nH]c3nc(-c4ccc(N5CCOCC5)nc4)ccc3c2cn1 [Example 21, 4-(5-(9H-pyrrolo[2,3-b:4,5-c′]dipyridin-2-yl)pyridin-2-yl)morpholine] |
| – | 8 | 15 | – | – | – | COCCNc1ncc(-c2ccc3c(n2)[nH]c2ccncc23)cn1 [Example 22, N-(2-methoxyethyl)-5-(9H-pyrrolo[2,3-b:4,5-c′]dipyridin-2-yl)pyrimidin-2-amine] |
| 0.02 | 7 | 9 | – | – | – | Cc1cc(-c2ccc3c(n2)[nH]c2ccncc23)n[nH]1 [Example 24, 2-(5-methyl-1H-pyrazol-3-yl)-9H-pyrrolo[2,3-b:4,5-c′]dipyridine] |
| 0.087 | 13 | 2 | – | – | – | FCCn1cc(-c2ccc3c(n2)[nH]c2ccncc23)cn1 [Example 25, 2-[1-(2-fluoroethyl)-1H-pyrazol-4-yl]-9H-pyrrolo[2,3-b: 4,5-c′]dipyridine] |
| – | 8 | 23 | – | – | – | O=C(NCCF)c1ccc(-c2ccc3c(n2)[nH]c2ccncc23)cn1 [Example 29, N-(2-fluoroethyl)-5-(9H-pyrrolo[2,3-b:4,5-c′]dipyridin-2-yl)picolinamide] |
| – | 2 | 9 | – | – | – | COCCNC(=O)c1ccc(-c2ccc3c(n2)[nH]c2ccncc23)cn1 [Example 30, N-(2-methoxyethyl)-5-(9H-pyrrolo[2,3-b:4,5-c′]dipyridin-2-yl)picolinamide] |

| fraction unbound at 4 h, 1 μM [1] | inhibition at 0.01 µM ([2]; 10 nM test compound) [%] | inhibition at 0.1 µM ([2]; 100 nM test compound) [%] | Fu Rat Brain [3] [%] | Rat MAO-A Binding INHIB 10 nM ([2]; 10 nM test compound, 10 nM [3H]Ro 41-1049) [%] | Rat MAO-A Binding INHIB 100 nM ([2]; 100 nM test compound, 10 nM [3H]Ro 41-1049) [%] | Compound |
| --- | --- | --- | --- | --- | --- | --- |
| 0.007 | 16 | 39 | – | – | – | COc1cnn(-c2ccc3c(n2)[nH]c2ccncc23)c1 [Example 31, 2-(4-methoxy-1H-pyrazol-1-yl)-9H-pyrrolo[2,3-b:4,5-c′]dipyridine] |
| 0.005 | 7 | 46 | – | – | – | c1cc2[nH]c3nc(-c4cnc(N5CCOCC5)s4)ccc3c2cn1 [Example 32, 4-(5-(9H-pyrrolo[2,3-b:4,5-c′]dipyridin-2-yl)thiazol-2-yl)morpholine] |
| 0.005 | – | – | – | – | – | CNc1ccc(C(=O)Nc2ccc3c(n2)[nH]c2ccncc23)cn1 [Example 35, 6-(methylamino)-N-(9H-pyrrolo[2,3-b:4,5-c′]dipyridin-2-yl)nicotinamide] |
| 0.005 | – | – | – | – | – | COc1cc2[nH]c3nc(-c4ccc(F)nc4)ccc3c2cn1 [Example 36, 2-(6-fluoropyridin-3-yl)-7-methoxy-9H-pyrrolo[2,3-b:4,5-c′]dipyridine] |
| – | 2 | 9 | – | – | – | CN(C)c1cc2[nH]c3nc(-c4cnn(C)c4)ccc3c2cn1 [Example 44, N,N-dimethyl-2-(1-methyl-1H-pyrazol-4-yl)-9H-pyrrolo[2,3-b:4,5-c′]dipyridin-7-amine] |
| 0.011 | – | – | – | – | – | Cc1cc2[nH]c3nc(-c4ccc(F)nc4)ccc3c2cn1 [Example 45, 2-(6-fluoropyridin-3-yl)-7-methyl-9H-pyrrolo[2,3-b:4,5-c′]dipyridine] |
| – | 11 | 12 | – | – | – | CNC(=O)c1ccc(-c2ccc3c(n2)[nH]c2cc(C)ncc23)cn1 [Example 46, N-methyl-5-(7-methyl-9H-pyrrolo[2,3-b:4,5-c′]dipyridin-2-yl)picolinamide] |
| 0.028 | -1 | 10 | – | – | – | Cc1cc2[nH]c3nc(-c4cnn(C)c4)ccc3c2cn1 [Example 47, 7-methyl-2-(1-methyl-1H-pyrazol-4-yl)-9H-pyrrolo[2,3-b: 4,5-c′]dipyridine] |
| – | -9 | -4 | – | – | – | CNC(=O)c1ccc(-c2ccc3c(n2)[nH]c2cc(COC)ncc23)cn1 [Example 49, 5-(7-(methoxymethyl)-9H-pyrrolo[2,3-b:4,5-c′]dipyridin-2-yl)-N-methylpicolinamide] |
| 0.04 | 1 | 7 | – | – | – | COCc1cc2[nH]c3nc(-c4cnn(C)c4)ccc3c2cn1 [Example 50, 7-(methoxymethyl)-2-(1-methyl-1H-pyrazol-4-yl)-9H-pyrrolo[2,3-b: 4,5-c′]dipyridine] |
| 0.045 | 3 | 6 | – | – | – | Cn1cc(-c2ccc3c(n2)[nH]c2cnccc23)cn1 [Example 51, 2-(1-methyl-1H-pyrazol-4-yl)-9H-pyrrolo[2,3-b:5,4-c′]dipyridine] |
| 0.026 | – | – | – | – | – | c1cc2c(cn1)[nH]c1nc(-c3cn[nH]c3)ccc12 [Example 52, 2-(1H-pyrazol-4-yl)-9H-pyrrolo[2,3-b:5,4-c′]dipyridine] |
| 0.015 | -10 | -13 | – | – | – | CNC(=O)c1ccc(-c2ccc3c(n2)[nH]c2cnccc23)cn1 [Example 53, N-methyl-5-(9H-pyrrolo[2,3-b:5,4-c′]dipyridin-2-yl)picolinamide] |
| 0.019 | 10 | 12 | – | – | – | Fc1ccc(-c2ccc3c(n2)[nH]c2cnccc23)cn1 [Example 54, 2-(6-fluoropyridin-3-yl)-9H-pyrrolo[2,3-b:5,4-c′]dipyridine] |
| 0.005 | 6 | 9 | – | – | – | CNc1ccc(-c2ccc3c(n2)[nH]c2cnccc23)cn1 [Example 55, N-methyl-5-(9H-pyrrolo[2,3-b:5,4-c′]dipyridin-2-yl)pyridin-2-amine] |
| 0.013 | 1 | 8 | – | – | – | Fc1ccc(-c2ccc3c(n2)[nH]c2ncccc23)cn1 [Example 57, 2-(6-fluoropyridin-3-yl)-9H-pyrrolo[2,3-b:5,4-b′]dipyridine] |
| – | – | – | 0.5 | −3 | −1 | N-methyl-5-(9H-pyrrolo[2,3-b:4,5-c′]dipyridin-7-yl)picolinamide [Example 60] |
